Patent US20240050429A1, “PAZOPANIB PHARMACEUTICAL COMPOSITION, INJECTION AND PREPARATION METHOD AND USE THEREOF” (Qx Therapeutics, Inc., priority 2022, published 2024)
Structures can show the parent of a compound that is named as a salt.

Test system: hydrochloric acid-induced acute lung injury in mice
Experiment: Hydrochloric acid-induced acute lung injury, lung permeability, tail intravenous injection of Example 2
Type: in vivo
Design: dose or concentration left out as unconfirmed
Procedure: 1. In this example, […], respectively, which corresponded to the freshly prepared pharmaceutical compositions in Example 2 (being freshly formulated referred to within 1 day after the formulation was completed), and the therapeutic effect of these doses on hydrochloric acid-induced acute lung injury in mice were determined, wherein the body weight of each mouse was 20 g.
8 to 10 weeks old C57/BL male and female mice were infused with 0.05 M HCl at 2.5 μl/bwg through the trachea. 4 hours later, 100 μl of FITC-labeled albumin (10 mg/ml) was injected through the posterior segment of eyeball. Finally, the mice were euthanized and lung tissue samples were collected 6 hours after the induction of injury to measure changes in pulmonary permeability and lung histopathology. […] Meanwhile, plasma was collected and bronchoalveolar lavage was performed after mice were euthanized.

## Cc1ccc(Nc2nccc(N(C)c3ccc4c(C)n(C)nc4c3)n2)cc1S(N)(=O)=O [Comparative Example 1, pazopanib hydrochloride]
  Percentage (%) of reduced lung permeability: 45 to 70%
